Read-outs that look alike come from different tables or passages of the source.
Tests used:
human NK-3 receptor = biological target: T1, human NK-3 receptor (Homo sapiens, UniProt P29371); experiment: Antagonistic activity on human NK-3 receptor in human NK-3R/HEK293 stably transfected cells (Fluo-4, FLIPR, Neurokinin B as agonist); type: cell-based; conditions: human NK-3R/HEK293 cells
T1 construct: expressed in transfected cells; host or cells: HEK293
T1 sequence (P29371 1-465): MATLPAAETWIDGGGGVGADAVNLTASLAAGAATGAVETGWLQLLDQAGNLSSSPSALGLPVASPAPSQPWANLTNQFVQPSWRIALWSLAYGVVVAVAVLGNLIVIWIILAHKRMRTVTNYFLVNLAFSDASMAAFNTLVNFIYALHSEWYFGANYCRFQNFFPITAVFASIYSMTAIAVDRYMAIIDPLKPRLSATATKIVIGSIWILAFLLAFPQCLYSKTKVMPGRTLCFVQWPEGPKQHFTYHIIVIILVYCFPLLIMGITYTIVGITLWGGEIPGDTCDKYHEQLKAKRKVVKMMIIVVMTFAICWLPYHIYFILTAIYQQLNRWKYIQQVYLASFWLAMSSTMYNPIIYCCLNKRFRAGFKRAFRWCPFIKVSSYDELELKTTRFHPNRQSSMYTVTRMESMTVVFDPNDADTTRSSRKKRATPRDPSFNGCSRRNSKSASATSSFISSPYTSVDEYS
Method: Test Example 1: Determination of Activity of Compounds of the Present Invention on Human NK-3 Receptor
This method is used to determine antagonistic effects of the compounds of the present invention on the activity of human NK-3 receptor proteins expressed in cell lines stably transfected with human NK-3R/HEK293.
2.1 The cell lines stably transfected with human NK-3R/HEK293 were inoculated in a 384-well cell culture plate at a inoculation density of 12,000 cells/well/25 μL, and cultured at 37° C. and 5% CO2 overnight;
2.2 20× Component A was frozen and thawed to room temperature, diluted 2× with Assay Buffer to working concentration, and kept at room temperature for later use;
2.3 The cell culture plate was equilibrated at room temperature for 10 min, the culture medium was removed, and 20 μL of Assay Buffer and 20 μL of 2× Component A […] were added, followed by centrifugation at 200 g at room temperature for 3-5 sec, and incubation at 37° C. for 2 h;
2.4 The compound was diluted 3 times with DMSO in 384 PP_DMSO plate, and then 240 nl/well of the compound was transferred into a working plate with Echo 550, centrifugated at 200 g at room temperature for 1 min; 40 μl of Assay Buffer was added into the working plate, centrifugated at 200 g at room temperature for 1 min, and then fully mixed in an oscillator at 2500 rpm for 20 min, and then centrifugated at 200 g at room temperature for 1 min for later use;
2.5 2.5 nM Neurokinin B TFA (6×) was prepared from Assay Buffer, 50 uL of which was transferred onto 3657 plate for later use;
2.6 The cell culture plate was taken out and left to stand at room temperature for 10 min, then […] the compound diluted in step 2.4 was added into corresponding wells, and the cell culture plate was left to stand at 25° C. for 30 min; and
2.7 10 μL of the compound diluted in step 2.5 was added into the corresponding experimental wells with FLIPR Tetra, and data was collected.
The antagonistic activity of the compounds of the present invention on the human NK-3 receptor was determined through the above experiments, to obtain inhibition curves of the compounds of the present invention and determine concentrations (IC50) of the corresponding compounds that inhibit 50% of the reference agonist.

[1] = Pharmacokinetic test in rats (gavage 3 mg/kg, intravenous 1 mg/kg); type: in vivo; conditions: rat, plasma, SD rats; for bioavailability: gavage 3 mg/kg vs intravenous 1 mg/kg, read-out: Oral bioavailability F (%); for Cmax: read-out: Blood concentration Cmax; for AUC: read-out: Curve area AUC; for half-life: read-out: Half life T1/2 (converted)
Method: Test Example 2: Pharmacokinetic Test of Compounds of the present invention in Rats
(§1) To study in vivo pharmacokinetic behaviors of the compounds of the present invention in rats, and evaluate pharmacokinetic characteristics thereof.
An appropriate amount of sample was weighed, and ultrasonically prepared into a 0.3 mg/mL suspension for the gavage administration group; and was prepared into a 0.2 mg/mL suspension for the intravenous administration group as per a formula of 5% DMSO+10% Solutol+85% (20% SBE-β-CD).
SD rats were fasted overnight, and then administered by gavage at a dosage of 3 mg/kg and by intravenous injection at a dosage of 1 mg/kg, respectively.
0.1 mL of blood was collected before administration and at 5 min, 15 min, 30 min, 1 h, 2 h, 4 h, 8 h, and 24 h after administration, transferred into heparinized tubes, and centrifuged at 3500 rpm for 10 min to separate the plasma, which was stored at −20° C. 4 h after administration, the animals were resumed for feeding/free access to water.
Contents of the test compounds in plasma of the rats after gavage administration were determined by LC/MS/MS.

MDR1 = experiment: In vitro brain model test: MDR1-MDCKII bidirectional permeability; type: in vitro ADME; conditions: dog; for Papp A→B at 2.5 h, 2 μM / Papp B→A at 2.5 h, 2 μM: MDCK-MDR1, pH 7.4, 2 μM, pH7.4; for efflux ratio at 2.5 h, 2 μM: MDCK-MDR1, pH 7.4, B to A / A to B, read-out: Efflux rate
Method: The test product was diluted from dimethyl sulfoxide stock solution to a concentration of 2 μM (dimethyl sulfoxide <1%) with a transfer buffer (HBSS containing 10 mM Hepes, pH7.4); and was applied to apical or basolateral cavities of the cell monolayer. Penetration of the test compound from the direction A to the direction B or from the direction B to the direction A was determined in duplicate. Digoxin was detected at 10 μM in the direction of A-B, or detected in the direction of B-A, while Nadolol and Metoprolol were detected at 2 μM in the direction of A-B in duplicate. The plate was cultivated in a CO2 incubator at 37±1° C. for 2.5 h with 5% CO2 at a saturated humidity without shaking. Further, the efflux rate of each compound was also determined. According to the peak area ratio of analyte/IS, the test product and the control product were quantitatively analyzed by LC-MS/MS.
After the transfer test, the monolayer integrity of cells was determined by a lucifer yellow exclusion assay. Buffer was removed from apical and basolateral cavities, and then 75 μL of 100 μM lucifer yellow and 250 μL of transfer buffer were added into the apical and basolateral cavities, respectively. The culture dish was cultivated at 37° C., 5% CO2, and saturated humidity for 30 min without shaking. After incubation for 30 min, 20 μL of lucifer yellow sample was extracted from the top, and then 60 μL of the transfer buffer was added. Then, 80 μL of lucifer yellow sample was extracted basolaterally. Relative Fluorescence Units (RFU) of lucifer yellow were measured at 425/528 nm (excitation/emission) with an Envision plate reader.

[2] = Pharmacokinetic test in rats: plasma and brain concentration after gavage 3 mg/kg; type: in vivo; conditions: rat, oral, SD rats
Method: Test Example 4: Pharmacokinetic Test of Compounds of the Present Invention in Rats
as §1
An appropriate amount of sample was weighed, and ultrasonically prepared into a 0.3 mg/mL suspension for the gavage administration group as per a formula of 5% DMSO+10% Solutol+85% (20% SBE-β-CD).
SD rats were fasted overnight, and then administered by gavage at a dosage of 3 mg/kg respectively.
Blood and cerebrospinal fluid were collected at designed time points after administration, and then brain tissue was collected after cardiac perfusion with normal saline. Plasma was collected by centrifugation within 1 h, and then immediately transferred onto wet ice. Centrifugation conditions: 4-10° C., 8,000 rpm, 6 min. 4 h after administration, the animals were resumed for feeding/free access to water.
The concentrations of corresponding compounds in plasma and cerebrospinal fluid were detected by LC-MS/MS.

SMILES | IC50 (human NK-3 receptor) [nM] | bioavailability ([1]; po) [%] | Cmax ([1]; po, gavage 3 mg/kg) [ng/mL] | AUC ([1]; po, gavage 3 mg/kg) [ng·h/mL] | half-life ([1]; po, gavage 3 mg/kg) [h] | AUC ([1]; intravenous injection 1 mg/kg) [ng·h/mL] | half-life ([1]; intravenous injection 1 mg/kg) [h] | Papp A→B at 2.5 h, 2 μM (MDR1) [×10⁻⁶ cm/s] | Papp B→A at 2.5 h, 2 μM (MDR1) [×10⁻⁶ cm/s] | efflux ratio at 2.5 h, 2 μM (MDR1) | other results
CC(=O)Nc1nc(-c2nc(C)ns2)n2c1[C@@H](C)N(C(=O)c1ccc(F)cc1)CC2 [Compound 034, (R)—N-(7-(4-fluorobenzoyl)-8-methyl-3-(3-methyl-1,2,4-thiadiazol-5-yl)-5,6,7,8-tetrahydroimidazo[1,5-a]pyrazin-1-yl)acetamide] | 30.4 | 83.1 | 1290 ± 133 | 5580 ± 241 | 3.92 ± 0.662 | 2240 ± 418 | 2.95 ± 0.855 | – | – | – | –
Cc1nsc(-c2nc(-c3ccnc(F)c3F)c3n2CCN(C(=O)c2ccc(F)cc2)[C@@H]3C)n1 [Compound 074, (R)-(1-(2,3-difluoropyridin-4-yl)-8-methyl-3-(3-methyl-1,2,4-thiadiazol-5-yl)-5,6-dihydroimidazo[1,5-a]pyrazin-7 (8H)-yl)(4-fluorophenyl)methanone] | 13.6 | – | – | – | – | – | – | 22.9 | 16.1 | 0.7 | –
Cc1nsc(-c2nc(-c3ccnc(F)c3)c3n2CCN(C(=O)c2ccc(F)cc2)[C@@H]3C)n1 [Compound 044, (R)-(4-fluorophenyl)(1-(2-fluoropyridin-4-yl)-8-methyl-3-(3-methyl-1,2,4-thiadiazol-5-yl)-5,6-dihydroimidazo[1,5-a]pyrazin-7 (8H)-yl)methanone] | 17 | – | – | – | – | – | – | 24 | 15.9 | 0.66 | –
Cc1nsc(-c2nc(N3Cc4ccccc4C3=O)c3n2CCN(C(=O)c2ccc(F)cc2)[C@@H]3C)n1 [Compound 085, (R)-2-(7-(4-fluorobenzoyl)-8-methyl-3-(3-methyl-1,2,4-thiadiazol-5-yl)-5,6,7,8-tetrahydroimidazo[1,5-a]pyrazin-1-yl)isoindolin-1-one] | 12.8 | – | – | – | – | – | – | 28 | 18.7 | 0.67 | –
Cc1nsc(-c2nc(N3CCCC3=O)c3n2CCN(C(=O)c2ccc(F)cc2)[C@@H]3C)n1 [Compound 068, (R)-1-(7-(4-fluorobenzoyl)-8-methyl-3-(3-methyl-1,2,4-thiadiazol-5-yl)-5,6,7,8-tetrahydroimidazo[1,5-a]pyrazin-1-yl)pyrrolidin-2-one] | 8.36 | 73.4 | 1030 ± 101 | 2890 ± 794 | 3.57 ± 1.39 | 1280 ± 264 | 1.02 ± 0.16 | – | – | – | –

The next lines start with results.

IC50 (human NK-3 receptor) [nM] | bioavailability ([1]; po) [%] | Cmax ([1]; po, gavage 3 mg/kg) [ng/mL] | AUC ([1]; po, gavage 3 mg/kg) [ng·h/mL] | half-life ([1]; po, gavage 3 mg/kg) [h] | AUC ([1]; intravenous injection 1 mg/kg) [ng·h/mL] | half-life ([1]; intravenous injection 1 mg/kg) [h] | Papp A→B at 2.5 h, 2 μM (MDR1) [×10⁻⁶ cm/s] | Papp B→A at 2.5 h, 2 μM (MDR1) [×10⁻⁶ cm/s] | efflux ratio at 2.5 h, 2 μM (MDR1) | SMILES | other results
734 | – | 2180 | 10100 | 3.22 | 2670 | 1.94 | 26.2 | 28.4 | – | Cc1nsc(-c2nnc3n2CCN(C(=O)c2ccc(F)cc2)[C@@H]3C)n1 [Fezolinetant, reference compound] | concentration at 1 h ([2]; brain, sampling time 1 h, read-out: Brain conc.): 512 ± 88.4 ng/mL; concentration at 2 h ([2]; brain, sampling time 2 h, read-out: Brain conc.): 585 ± 117 ng/mL; concentration at 4 h ([2]; brain, sampling time 4 h, read-out: Brain conc.): 419 ± 37.1 ng/mL; Kp at 1 h ([2]; brain/plasma, sampling time 1 h, read-out: B/P ratio): 0.38; Kp at 2 h ([2]; brain/plasma, sampling time 2 h, read-out: B/P ratio): 0.46; Kp at 4 h ([2]; brain/plasma, sampling time 4 h, read-out: B/P ratio): 0.44; concentration at 1 h ([2]; plasma, sampling time 1 h, read-out: Plasma conc.): 1330 ± 177 ng/mL; concentration at 2 h ([2]; plasma, sampling time 2 h, read-out: Plasma conc.): 1280 ± 110 ng/mL; concentration at 4 h ([2]; plasma, sampling time 4 h, read-out: Plasma conc.): 961 ± 21 ng/mL
15.4 | 65.6 | 348 ± 104 | 1860 ± 303 | 4.69 ± 1.18 | 842 ± 66.3 | 0.94 ± 0.19 | – | – | – | Cc1nsc(-c2nc(N3C[C@H](F)CC3=O)c3n2CCN(C(=O)c2ccc(F)cc2)[C@@H]3C)n1 [Compound 107, (R)-4-fluoro-1-[(R)-7-(4-fluorobenzoyl)-8-methyl-3-(3-methyl-1,2,4-thiadiazol-5-yl)-5,6,7,8-tetrahydroimidazo[1,5-a]pyrazin-1-yl]pyrrolidin-2-one] | –
– | – | – | – | – | – | – | 19.2 | 12.2 | 0.64 | Cc1nsc(-c2nc(-c3cc(F)ncc3O)c3n2CCN(C(=O)c2ccc(F)cc2)[C@@H]3C)n1 [Compound 165, (R)-(1-(2-fluoro-5-hydroxypyridin-4-yl)-8-methyl-3-(3-methyl-1,2,4-thiadiazol-5-yl)-5,6-dihydroimidazo[1,5-a]pyrazin-7 (8H)-yl)(4-fluorophenyl)methanone] | –

From patent US20240228501A1, “IMIDAZOLE-CONTAINING CONDENSED RING DERIVATIVE, PREPARATION METHOD THEREFOR, AND APPLICATION THEREOF IN MEDICINE” (CHANGCHUN GENESCIENCE PHARMACEUTICAL CO., LTD., priority 2021, published 2024)
